Converted amounts (≈) assume the structure as drawn.
Tests used:
Experiment in all cases: In vitro antimicrobial activity, MIC by broth microdilution (CLSI)
Type in all cases: cell-based
A. baumannii JMI7 = conditions: Acinetobacter baumannii, JMI7; PER-1, OXA-23, 51, ESBL and OXA-type carbapenemase producing strain; 5×10^5 cfu/mL; cation-adjusted Iso-Sensitest broth containing human Apo-transferrin; read-out: Minimum Inhibitory Concentration (MIC) A. baumannii JMI:7
Method: (§1) Compound (I) of the invention was evaluated for in vitro antimicrobial activity thereof.
(§2) Measurement of Minimum Inhibitory Concentration (MIC: μg/mL) was conducted according to CLSI (Clinical and Laboratory Standards Institute) method, and the amount of bacteria for inoculation was 5×10^5 cfu/mL, and cation-adjusted Iso-Sensitest broth containing human Apo-transferrin was used as a test medium, and the experiment was conducted using broth microdilution method. The bacteria used are listed below.

K. pneumoniae SR01358 = conditions: Klebsiella pneumoniae, SR01358; KPC-2, ESBL and KPC-type carbapenemase producing strain; 5×10^5 cfu/mL; cation-adjusted Iso-Sensitest broth containing human Apo-transferrin; read-out: Minimum Inhibitory Concentration (MIC) K. pneumoniae SR01358
Method: as §1, §2

E. Coli JMI1890 = conditions: Escherichia coli; PER-1, TEM-1, ESBL producing strain; 5×10^5 cfu/mL; cation-adjusted Iso-Sensitest broth containing human Apo-transferrin; read-out: Minimum Inhibitory Concentration (MIC) E. Coli JMI:1890
Method: as §1, §2

A. baumannii JMI2346 = conditions: Acinetobacter baumannii, JMI2346; OXA-51, TEM, ESBL and OXA-type carbapenemase producing strain; 5×10^5 cfu/mL; cation-adjusted Iso-Sensitest broth containing human Apo-transferrin; read-out: Minimum Inhibitory Concentration (MIC) A. baumannii JMI:2346
Method: as §1, §2

SMILES	MIC (A. baumannii JMI7) [µg/mL]	MIC (K. pneumoniae SR01358) [µg/mL]	MIC (E. Coli JMI1890) [µg/mL]	MIC (A. baumannii JMI2346) [µg/mL]
C[C@@H]1S[C@@H]2[C@H](NC(=O)/C(=N\OC(C)(C)C(=O)[O-])c3csc(N)n3)C(=O)N2C(C(=O)[O-])=C1C[N+]12CCC[C@H]1CN(C(=O)C(=O)c1cc(O)c(O)c(F)c1)CC2.[Na+] (some centres unmarked) [Compound I-85]	2	0.25	0.5	8
C[C@@H]1S[C@@H]2[C@H](NC(=O)/C(=N\OC(C)(C)C(=O)[O-])c3csc(N)n3)C(=O)N2C(C(=O)O)=C1C[N+]1(CCNC(=O)c2cn(C3CC3)c3cc(O)c(O)c(Cl)c3c2=O)CCCC1 [Compound I-90]	0.5 (≈ 0.572 µM)	≤ 0.031	1 (≈ 1.14 µM)	8 (≈ 9.16 µM)
C[C@@H]1S[C@@H]2[C@H](NC(=O)/C(=N\OC(C)(C)C(=O)[O-])c3csc(N)n3)C(=O)N2C(C(=O)O)=C1C[N+]12CCC(CNC(=O)/C(=N\O)c3ccc(O)c(O)c3)(CC1)CC2 [Compound I-92]	4 (≈ 4.99 µM)	0.125 (≈ 0.156 µM)	2 (≈ 2.5 µM)	16 (≈ 20 µM)
C[C@@H]1S[C@@H]2[C@H](NC(=O)/C(=N\OC(C)(C)C(=O)[O-])c3csc(N)n3)C(=O)N2C(C(=O)O)=C1C[N+]12CCC(CNC(=O)/C(=N\O)c3ccc(O)c(O)c3Cl)(CC1)CC2 [Compound I-94]	1 (≈ 1.2 µM)	0.063 (≈ 0.0754 µM)	0.5 (≈ 0.599 µM)	4 (≈ 4.79 µM)
CO/N=C(\C(=O)NCC12CC[N+](CC3=C(C(=O)O)N4C(=O)[C@@H](NC(=O)/C(=N\OC(C)(C)C(=O)[O-])c5csc(N)n5)[C@H]4S[C@H]3C)(CC1)CC2)c1ccc(O)c(O)c1Cl [Compound I-96]	1 (≈ 1.18 µM)	≤ 0.031	0.125 (≈ 0.147 µM)	8 (≈ 9.42 µM)
C[C@@H]1S[C@@H]2[C@H](NC(=O)/C(=N\OC(C)(C)C(=O)[O-])c3csc(N)n3)C(=O)N2C(C(=O)O)=C1C[N+]12CCC(CNC(=O)/C(=N\OCC(=O)O)c3ccc(O)c(O)c3Cl)(CC1)CC2 [Compound I-98]	0.5 (≈ 0.56 µM)	≤ 0.031	0.063 (≈ 0.0705 µM)	4 (≈ 4.48 µM)
C[C@@H]1S[C@@H]2[C@H](NC(=O)/C(=N\OC(C)(C)C(=O)O)c3csc(N)n3)C(=O)N2C(C(=O)O)=C1C[N+]12CCC(CNC(=O)/C(=N\OC(C)(C)C(=O)[O-])c3ccc(O)c(O)c3Cl)(CC1)CC2 [Compound I-99]	2 (≈ 2.17 µM)	≤ 0.031	1 (≈ 1.09 µM)	16 (≈ 17.4 µM)
C[C@@H]1S[C@@H]2[C@H](NC(=O)/C(=N\OC(C)(C)C(=O)[O-])c3csc(N)n3)C(=O)N2C(C(=O)O)=C1C[N+]12CCC(CNC(=O)c3ccc(O)c(O)c3Cl)(CC1)C2 [Compound I-100]	0.5 (≈ 0.642 µM)	0.063 (≈ 0.0809 µM)	0.125 (≈ 0.161 µM)	1 (≈ 1.28 µM)
C[C@@H]1S[C@@H]2[C@H](NC(=O)/C(=N\OC(C)(C)C(=O)[O-])c3csc(N)n3)C(=O)N2C(C(=O)O)=C1C[N+]12CCC(CNC(=O)/C(=N\OCC(=O)O)c3ccc(O)c(O)c3Cl)(CC1)C2 [Compound I-101]	0.25 (≈ 0.284 µM)	≤ 0.031	0.063 (≈ 0.0716 µM)	0.5 (≈ 0.569 µM)
C[C@@H]1S[C@@H]2[C@H](NC(=O)/C(=N\OC(C)(C)C(=O)[O-])c3csc(N)n3)C(=O)N2C(C(=O)O)=C1C[N+]12CCC(CNC(=O)/C(=N\O)c3ccc(O)c(O)c3Cl)(CC1)C2 [Compound I-102]	0.5 (≈ 0.609 µM)	≤ 0.031	0.125 (≈ 0.152 µM)	2 (≈ 2.44 µM)
CO/N=C(\C(=O)NCC12CC[N+](CC3=C(C(=O)O)N4C(=O)[C@@H](NC(=O)/C(=N\OC(C)(C)C(=O)[O-])c5csc(N)n5)[C@H]4S[C@H]3C)(CC1)C2)c1ccc(O)c(O)c1Cl [Compound I-104]	1 (≈ 1.2 µM)	≤ 0.031	0.125 (≈ 0.15 µM)	1 (≈ 1.2 µM)
C[C@@H]1S[C@@H]2[C@H](NC(=O)/C(=N\OC(C)(C)C(=O)[O-])c3csc(N)n3)C(=O)N2C(C(=O)[O-])=C1C[N+]12CCC(CNC(=O)C(=O)c3ccc(O)c(O)c3)(CC1)CC2.[Na+] [Compound I-107]	2	≤ 0.031	0.5	4
C[C@@H]1S[C@@H]2[C@H](NC(=O)/C(=N\OC(C)(C)C(=O)[O-])c3csc(N)n3)C(=O)N2C(C(=O)[O-])=C1C[N+]12CCC(CC1)N(C(=O)C(=O)c1ccc(O)c(O)c1)CC2.[Na+] [Compound I-108]	0.5	≤ 0.031	0.5	2
C[C@@H]1S[C@@H]2[C@H](NC(=O)/C(=N\OC(C)(C)C(=O)[O-])c3csc(N)n3)C(=O)N2C(C(=O)[O-])=C1C[N+]1(CCNC(=O)C(=O)c2ccc(O)c(O)c2)CCCC1.[Na+] [Compound I-109]	1	0.063	0.5	8
C[C@@H]1S[C@@H]2[C@H](NC(=O)/C(=N\OC(C)(C)C(=O)[O-])c3csc(N)n3)C(=O)N2C(C(=O)[O-])=C1C[N+]12CCC(Cn3ncc4c(Cl)c(O)c(O)cc4c3=O)(CC1)CC2.[Na+] [Compound I-113]	0.25	≤ 0.031	0.25	4
C[C@@H]1S[C@@H]2[C@H](NC(=O)/C(=N\OC(C)(C)C(=O)[O-])c3csc(N)n3)C(=O)N2C(C(=O)[O-])=C1C[N+]12CCC(CNN3C(=O)c4cc(O)c(O)c(Cl)c4C3=O)(CC1)CC2.[Na+] [Compound I-114]	0.5	≤ 0.031	0.125	4
C[C@@H]1S[C@@H]2[C@H](NC(=O)/C(=N\OC(C)(C)C(=O)[O-])c3csc(N)n3)C(=O)N2C(C(=O)[O-])=C1C[N+]12CCC(CN3C(=O)c4cc(O)c(O)cc4C3=O)(CC1)C2.[Na+] [Compound I-116]	0.25	≤ 0.031	≤ 0.031	1
C[C@@H]1S[C@@H]2[C@H](NC(=O)/C(=N\OC(C)(C)C(=O)[O-])c3csc(N)n3)C(=O)N2C(C(=O)[O-])=C1C[N+]12CCC(CNC(=O)c3cc(O)c(O)c(F)c3)(CC1)C2.[Na+] [Compound I-117]	0.5	0.25	≤ 0.031	1
C[C@@H]1S[C@@H]2[C@H](NC(=O)/C(=N\OC(C)(C)C(=O)[O-])c3csc(N)n3)C(=O)N2C(C(=O)[O-])=C1C[N+]12CCCC(CNC(=O)c3ccc(O)c(O)c3Cl)(CCC1)C2.[Na+] [Compound I-118]	0.25	0.063	≤ 0.031	0.5
C[C@@H]1S[C@@H]2[C@H](NC(=O)/C(=N\OC(C)(C)C(=O)[O-])c3csc(N)n3)C(=O)N2C(C(=O)O)=C1C[N@+]1(C)[C@@H]2CC[C@H]1C[C@@H](NC(=O)c1cn(C3CC3)c3cc(O)c(O)c(Cl)c3c1=O)C2 [Compound I-120]	0.5 (≈ 0.556 µM)	≤ 0.031	0.063 (≈ 0.07 µM)	2 (≈ 2.22 µM)
CCn1cc(C(=O)N[C@H]2C[C@H]3CC[C@@H](C2)[N@+]3(C)CC2=C(C(=O)O)N3C(=O)[C@@H](NC(=O)/C(=N\OC(C)(C)C(=O)[O-])c4csc(N)n4)[C@H]3S[C@H]2C)c(=O)c2c(Cl)c(O)c(O)cc21 [Compound I-121]	0.5 (≈ 0.563 µM)	≤ 0.031	0.063 (≈ 0.071 µM)	2 (≈ 2.25 µM)
C[C@@H]1S[C@@H]2[C@H](NC(=O)/C(=N\OC(C)(C)C(=O)[O-])c3csc(N)n3)C(=O)N2C(C(=O)O)=C1C[N+]12CCC(Cn3[nH]c(=O)c4cc(O)c(O)cc4c3=O)(CC1)CC2 [Compound I-122]	0.5 (≈ 0.626 µM)	≤ 0.031	0.25 (≈ 0.313 µM)	2 (≈ 2.5 µM)
C[C@@H]1S[C@@H]2[C@H](NC(=O)/C(=N\OC(C)(C)C(=O)[O-])c3csc(N)n3)C(=O)N2C(C(=O)O)=C1C[N+]12CCC(CNN3C(=O)c4cc(O)c(O)cc4C3=O)(CC1)CC2 [Compound I-123]	0.5 (≈ 0.626 µM)	≤ 0.031	0.125 (≈ 0.156 µM)	4 (≈ 5.01 µM)
C[C@@H]1S[C@@H]2[C@H](NC(=O)/C(=N\OC(C)(C)C(=O)O)c3csc(N)n3)C(=O)N2C(C(=O)[O-])=C1C[N+]12CCC(Cn3ncc4cc(O)c(O)cc4c3=O)(CC1)CC2 [Compound I-124]	0.5 (≈ 0.639 µM)	≤ 0.031	0.125 (≈ 0.16 µM)	2 (≈ 2.55 µM)
C[C@@H]1S[C@@H]2[C@H](NC(=O)/C(=N\OC(C)(C)C(=O)O)c3csc(N)n3)C(=O)N2C(C(=O)[O-])=C1C[N+]12CCC(Cn3ncc4cc(O)c(O)c(Cl)c4c3=O)(CC1)CC2 [Compound I-125]	0.5 (≈ 0.612 µM)	≤ 0.031	0.125 (≈ 0.153 µM)	8 (≈ 9.79 µM)
C[C@@H]1S[C@@H]2[C@H](NC(=O)/C(=N\OC(C)(C)C(=O)O)c3csc(N)n3)C(=O)N2C(C(=O)[O-])=C1C[N+]12CCC(Cn3ncc4cc(O)c(O)cc4c3=O)(CC1)C2 [Compound I-126]	0.25 (≈ 0.325 µM)	≤ 0.031	0.063 (≈ 0.0819 µM)	0.5 (≈ 0.65 µM)

Reference: patent US10174053B2, “2 substituted cephem compounds” (Glaxo Group Limited, priority 2012, dated 2019)
